Experimental data reported in ChEMBL document CHEMBL5729568, “Ras inhibitors” (2023).

Key:
GTPase KRas = GTPase KRas (Homo sapiens, UniProt P01116); assay: The purpose of this biochemical assay is to measure the ability of test compounds to covalently label nucleotide-loaded K-Ras isoforms. […] Analysis of raw data may be carried out using Waters MassLynx MS software, with % bound calculated from the deconvoluted protein peaks for labeled and unlabeled K-Ras.
[1] = (§1) Biochemical Assay: A variety of Ras proteins may be inhibited by compounds of the present invention (e.g., K-Ras, N-Ras, H-Ras, and mutants thereof at positions 12, 13 and 61, such as G12C, G12D, G12V, G12S, G13C, G13D, and Q61L, and others described herein). The purpose of this biochemical assay is to measure the ability of test compounds to covalently label nucleotide-loaded K-Ras isoforms. […] The sample is incubated at 25? C. for a time period of up to 24 hours prior to quenching by the addition of 10 uL of 5% Formic Acid. Quenched samples are centrifuged at 15000 rpm for 15 minutes in a benchtop centrifuge before injecting a 10 uL aliquot onto a reverse phase C4 column and eluting into the mass spectrometer with an increasing acetonitrile gradient in the mobile phase. Analysis of raw data may be carried out using Waters MassLynx MS software, with % bound calculated from the deconvoluted protein peaks for labeled and unlabeled K-Ras.
[2] = as §1; remark: listed apart in the source
[3] = as §1; remark: listed apart in the source
[4] = as §1; remark: listed apart in the source
[5] = as §1; remark: listed apart in the source
[6] = as §1; remark: listed apart in the source
[7] = as §1; remark: listed apart in the source

| IC50 (GTPase KRas) | IC50 [1] | IC50 [2] | IC50 [3] | IC50 [4] | IC50 [5] | IC50 [6] | IC50 [7] | Structure (SMILES) |
| --- | --- | --- | --- | --- | --- | --- | --- | --- |
| in the range around 0.55 µM | in the range around 5.5 µM |  |  |  |  |  |  | C=CC(=O)N1CC[C@H](C(=O)N(C)[C@H](C(=O)N[C@H]2Cc3cc(O)cc(c3)-c3ccc4c(c3)c(c(-c3cnn(C)c3)n4CC)CC(C)(C)COC(=O)[C@@H]3CCCN(N3)C2=O)C(C)C)C1 |
| in the range around 0.55 µM | in the range around 5.5 µM |  |  |  |  |  |  | C=CC(=O)N1CC[C@H](C(=O)N(C)[C@H](C(=O)N[C@H]2Cc3cc(O)cc(c3)-c3ccc4c(c3)c(c(-c3ccc(C5CCN(C)CC5)nc3)n4CC)CC(C)(C)COC(=O)[C@@H]3CCCN(N3)C2=O)C(C)C)C1 |
|  | in the range around 5.5 µM | > 10 µM | > 10 µM | in the range around 0.55 µM | > 10 µM | in the range around 5.5 µM | in the range around 5.5 µM | C=CC(=O)N1CC[C@H](C(=O)N(C)[C@H](C(=O)N[C@H]2C[C@H]3CN(CCO3)c3ccc4c(c3)c(c(-c3cccnc3C(C)OC)n4CC)CC(C)(C)COC(=O)[C@@H]3CCCN(N3)C2=O)C(C)C)C1 (stereo not given in full) |
| in the range around 0.055 µM | in the range around 5.5 µM |  |  |  |  |  |  | C=CC(=O)N1CC(C(=O)N(C)[C@H](C(=O)N[C@H]2Cc3cc(O)cc(c3)-c3ccc4c(c3)c(c(-c3cccnc3COC)n4CC)CC(C)(C)COC(=O)[C@@H]3CCCN(N3)C2=O)C(C)C)C1 |
| in the range around 0.055 µM |  |  |  |  |  |  |  | CCn1c(-c2ccccc2COC)c2c3cc(ccc31)-c1cc(O)cc(c1)C[C@H](NC(=O)[C@H](C(C)C)N(C)C(=O)[C@H]1CCN(C(=O)/C=C/CN(C)C)C1)C(=O)N1CCC[C@H](N1)C(=O)OCC(C)(C)C2 |
| in the range around 0.055 µM |  |  |  |  |  |  | in the range around 0.55 µM | C=CC(=O)N1CC[C@H](C(=O)N(C)[C@H](C(=O)N[C@H]2Cc3cc(O)cc(c3)-c3ccc4c(c3)c(c(-c3cnccc3COC)n4CC)CC(C)(C)COC(=O)[C@@H]3CCCN(N3)C2=O)C(C)C)C1 |

The remaining lines, values behind:

| Structure (SMILES) | IC50 (GTPase KRas) | IC50 [1] | IC50 [2] | IC50 [3] | IC50 [4] | IC50 [5] | IC50 [6] | IC50 [7] |
| --- | --- | --- | --- | --- | --- | --- | --- | --- |
| CCn1c(-c2cccnc2C(C)OC)c2c3cc(ccc31)-c1csc(n1)C[C@H](NC(=O)[C@@H](COC1CN(C(=O)C#CC(C)(C)N(C)C)C1)C(C)C)C(=O)N1CCC[C@H](N1)C(=O)OCC(C)(C)C2 (stereo not given in full) |  | in the range around 5.5 µM | > 10 µM | in the range around 5.5 µM | < 0.01 µM | > 10 µM | > 10 µM | in the range around 5.5 µM |
| CCn1c(-c2cccnc2C(C)OC)c2c3cc(ccc31)-c1cccc(c1)C[C@H](NC(=O)[C@@H](COC1CN(C(=O)C#CC(C)(C)N3CCC3)C1)C(C)C)C(=O)N1CCC[C@H](N1)C(=O)OCC(C)(C)C2 (stereo not given in full) |  | in the range around 5.5 µM | > 10 µM | in the range around 5.5 µM | in the range around 0.055 µM | > 10 µM | > 10 µM | in the range around 5.5 µM |
| COC(C)c1ncccc1-c1c2c3cc(ccc3n1CC(F)(F)F)-c1cccc(c1)CN(NC(=O)[C@@H](COC1CN(C(=O)C#CC(C)(C)N(C)C)C1)C(C)C)C(=O)N1CCC[C@H](N1)C(=O)OCC(C)(C)C2 (stereo not given in full) |  | in the range around 5.5 µM | in the range around 5.5 µM | in the range around 5.5 µM | < 0.01 µM | in the range around 5.5 µM | in the range around 5.5 µM | in the range around 0.55 µM |
| CCn1c(-c2cccnc2C(C)OC)c2c3cc(ccc31)N1CCO[C@@H](C[C@H](NC(=O)[C@@H](COC3CN(C(=O)C#CC(C)(C)N(C)C)C3)C(C)C)C(=O)N3CCC[C@H](N3)C(=O)OCC(C)(C)C2)C1 (stereo not given in full) |  | > 10 µM | > 10 µM | > 10 µM | < 0.01 µM | > 10 µM | > 10 µM | in the range around 5.5 µM |
| CCn1c(-c2cccnc2C(C)OC)c2c3cc(ccc31)-c1cccc(c1)C[C@H](NC(=O)[C@@H](COC1CN(C(=O)C#C[C@H]3COCCN3C)C1)C(C)C)C(=O)N1CCC[C@H](N1)C(=O)OCC(C)(C)C2 (stereo not given in full) |  | > 10 µM | > 10 µM | > 10 µM | in the range around 0.055 µM | > 10 µM | > 10 µM | in the range around 5.5 µM |
| CCn1c(-c2cccnc2C(C)OC)c2c3cc(ccc31)-c1cc(F)cc(c1)C[C@H](NC(=O)[C@@H](COC1CN(C(=O)C#CC(C)(C)N(C)C)C1)C(C)C)C(=O)N1CCC[C@H](N1)C(=O)OCC(C)(C)C2 (stereo not given in full) |  | in the range around 5.5 µM | > 10 µM | in the range around 5.5 µM | in the range around 0.055 µM | > 10 µM | > 10 µM | in the range around 5.5 µM |
| C=CC(=O)N1CC(OC[C@H](C(=O)N[C@H]2Cc3cc(F)cc(c3)-c3ccc4c(c3)c(c(-c3cccnc3C(C)OC)n4CC(F)(F)F)CC(C)(C)COC(=O)[C@@H]3CCCN(N3)C2=O)C(C)C)C1 (stereo not given in full) |  | in the range around 5.5 µM | in the range around 5.5 µM | in the range around 0.55 µM | in the range around 0.55 µM | in the range around 5.5 µM | in the range around 5.5 µM | in the range around 0.55 µM |
